Measured values published in PubChem BioAssay (NCI).
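Cells were grown in 96-well plates and exposed to each compound for 48 hours at five concentrations; endpoints were interpolated linearly between bracketing concentrations, or set to the highest concentration if not reached. At the GI50, growth is halved. TGI marks complete inhibition of growth.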

Experiments:
Assay in all cases: NCI tumour cell line growth inhibition, 48 h
DU-145 prostate = test system: DU-145 prostate
HL-60(TB) leukemia = test system: HL-60(TB) leukemia
TK-10 renal = test system: TK-10 renal
UO-31 renal = test system: UO-31 renal
OVCAR-4 ovarian = test system: OVCAR-4 ovarian
ACHN renal = test system: ACHN renal
A549 NSCLC = test system: A549 NSCLC
SK-MEL-28 melanoma = test system: SK-MEL-28 melanoma
KM12 colon = test system: KM12 colon
BT-549 breast = test system: BT-549 breast
HCT-116 colon = test system: HCT-116 colon
HOP-62 NSCLC = test system: HOP-62 NSCLC
U251 CNS = test system: U251 CNS
MDA-N = test system: MDA-N
SK-MEL-2 melanoma = test system: SK-MEL-2 melanoma
SW-620 colon = test system: SW-620 colon
HCC-2998 colon = test system: HCC-2998 colon
PC-3 prostate = test system: PC-3 prostate
CAKI-1 renal = test system: CAKI-1 renal
HS 578T breast = test system: HS 578T breast
K-562 leukemia = test system: K-562 leukemia
NCI-H226 lung = test system: NCI-H226 lung
NCI-H522 lung = test system: NCI-H522 lung
RPMI-8226 leukemia = test system: RPMI-8226 leukemia
HOP-92 NSCLC = test system: HOP-92 NSCLC
UACC-62 melanoma = test system: UACC-62 melanoma
HCT-15 colon = test system: HCT-15 colon
A498 renal = test system: A498 renal
UACC-257 melanoma = test system: UACC-257 melanoma
SF-268 CNS = test system: SF-268 CNS
LOX IMVI melanoma = test system: LOX IMVI melanoma
MALME-3M melanoma = test system: MALME-3M melanoma
OVCAR-8 ovarian = test system: OVCAR-8 ovarian
SK-OV-3 ovarian = test system: SK-OV-3 ovarian
RXF 393 renal = test system: RXF 393 renal
SF-295 CNS = test system: SF-295 CNS
OVCAR-5 ovarian = test system: OVCAR-5 ovarian
T-47D breast = test system: T-47D breast
MDA-MB-435 = test system: MDA-MB-435
MCF7 breast = test system: MCF7 breast
CCRF-CEM leukemia = test system: CCRF-CEM leukemia
COLO 205 colon = test system: COLO 205 colon
EKVX NSCLC = test system: EKVX NSCLC
NCI-H23 lung = test system: NCI-H23 lung
SF-539 CNS = test system: SF-539 CNS
786-0 renal = test system: 786-0 renal
OVCAR-3 ovarian = test system: OVCAR-3 ovarian
SR leukemia = test system: SR leukemia
MDA-MB-231 breast = test system: MDA-MB-231 breast
IGROV1 ovarian = test system: IGROV1 ovarian
NCI-H460 lung = test system: NCI-H460 lung
MOLT-4 leukemia = test system: MOLT-4 leukemia
HT29 colon = test system: HT29 colon
M14 melanoma = test system: M14 melanoma
SK-MEL-5 melanoma = test system: SK-MEL-5 melanoma
SNB-19 CNS = test system: SNB-19 CNS
SNB-75 CNS = test system: SNB-75 CNS
NCI/ADR-RES ovarian = test system: NCI/ADR-RES ovarian
SN12C renal = test system: SN12C renal
DMS 114 small cell lung = test system: DMS 114 small cell lung
KM20L2 colon = test system: KM20L2 colon
M19-MEL melanoma = test system: M19-MEL melanoma
SNB-78 CNS = test system: SNB-78 CNS
LXFL 529 NSCLC = test system: LXFL 529 NSCLC
DLD-1 colon = test system: DLD-1 colon
DMS 273 small cell lung = test system: DMS 273 small cell lung
HOP-18 NSCLC = test system: HOP-18 NSCLC

## O=C(c1c(F)c(F)c(F)c(F)c1F)c1c(F)c(F)c(F)c(F)c1F
DU-145 prostate
  TGI: 4.64 µM
HL-60(TB) leukemia
  TGI: > 100 µM
TK-10 renal
  TGI: 2.47 µM
UO-31 renal
  TGI: 2.64 µM
OVCAR-4 ovarian
  TGI: 3.14 µM
ACHN renal
  TGI: 3.09 µM
A549 NSCLC
  TGI: 15.4 µM
SK-MEL-28 melanoma
  TGI: 7.92 µM
KM12 colon
  TGI: 2.04 µM
BT-549 breast
  TGI: 6.68 µM
HCT-116 colon
  TGI: 2.96 µM
HOP-62 NSCLC
  TGI: 3.49 µM
U251 CNS
  TGI: 2.41 µM
MDA-N
  TGI: 3.11 µM
SK-MEL-2 melanoma
  TGI: 7.02 µM
SW-620 colon
  TGI: 60.6 µM
HCC-2998 colon
  TGI: 3.47 µM
PC-3 prostate
  TGI: 3.39 µM
CAKI-1 renal
  TGI: 1.69 µM
HS 578T breast
  TGI: > 26.6 µM
K-562 leukemia
  TGI: > 100 µM
NCI-H226 lung
  TGI: 8.96 µM
NCI-H522 lung
  TGI: 0.392 µM
RPMI-8226 leukemia
  TGI: 4.71 µM
HOP-92 NSCLC
  TGI: 3.43 µM
UACC-62 melanoma
  TGI: 3.97 µM
HCT-15 colon
  TGI: 3.83 µM
A498 renal
  TGI: 9.16 µM
UACC-257 melanoma
  TGI: 4.65 µM
SF-268 CNS
  TGI: 7.8 µM
LOX IMVI melanoma
  TGI: 2.19 µM
MALME-3M melanoma
  TGI: 3.23 µM
OVCAR-8 ovarian
  TGI: 2.97 µM
SK-OV-3 ovarian
  TGI: 5.57 µM
RXF 393 renal
  TGI: 2.94 µM
SF-295 CNS
  TGI: 6.44 µM
OVCAR-5 ovarian
  TGI: 3.65 µM
T-47D breast
  TGI: > 100 µM
MDA-MB-435
  TGI: 3.21 µM
MCF7 breast
  TGI: 2.58 µM
CCRF-CEM leukemia
  TGI: 1.15 µM
COLO 205 colon
  TGI: 3.28 µM
EKVX NSCLC
  TGI: 4.06 µM
NCI-H23 lung
  TGI: 7.87 µM
SF-539 CNS
  TGI: 2.69 µM
786-0 renal
  TGI: 1.64 µM
OVCAR-3 ovarian
  TGI: 2.43 µM
SR leukemia
  TGI: 1.07 µM
MDA-MB-231 breast
  TGI: 3.46 µM
IGROV1 ovarian
  TGI: 2.64 µM
NCI-H460 lung
  TGI: 5.24 µM
MOLT-4 leukemia
  TGI: 0.764 µM
HT29 colon
  TGI: 3.08 µM
M14 melanoma
  TGI: 5.97 µM
SK-MEL-5 melanoma
  TGI: 8.24 µM
SNB-19 CNS
  TGI: 16.3 µM
SNB-75 CNS
  TGI: 3.48 µM
NCI/ADR-RES ovarian
  TGI: 14.5 µM

## C[C@H](Nc1nc(N)c(N=O)c(=O)n1C)C(=O)O
DU-145 prostate
  TGI: > 10 µM
HL-60(TB) leukemia
  TGI: > 10 µM
TK-10 renal
  TGI: > 10 µM
OVCAR-4 ovarian
  TGI: > 10 µM
ACHN renal
  TGI: > 10 µM
A549 NSCLC
  TGI: > 10 µM
SK-MEL-28 melanoma
  TGI: > 10 µM
KM12 colon
  TGI: > 10 µM
BT-549 breast
  TGI: > 10 µM
HCT-116 colon
  TGI: > 10 µM
HOP-62 NSCLC
  TGI: > 10 µM
U251 CNS
  TGI: > 10 µM
MDA-N
  TGI: > 10 µM
SK-MEL-2 melanoma
  TGI: > 10 µM
SW-620 colon
  TGI: > 10 µM
HCC-2998 colon
  TGI: > 10 µM
PC-3 prostate
  TGI: > 10 µM
CAKI-1 renal
  TGI: > 10 µM
HS 578T breast
  TGI: > 10 µM
K-562 leukemia
  TGI: > 10 µM
NCI-H226 lung
  TGI: > 10 µM
NCI-H522 lung
  TGI: > 10 µM
RPMI-8226 leukemia
  TGI: > 10 µM
HOP-92 NSCLC
  TGI: > 10 µM
UACC-62 melanoma
  TGI: > 10 µM
HCT-15 colon
  TGI: > 10 µM
A498 renal
  TGI: > 10 µM
UACC-257 melanoma
  TGI: > 10 µM
SF-268 CNS
  TGI: > 10 µM
LOX IMVI melanoma
  TGI: > 10 µM
MALME-3M melanoma
  TGI: > 10 µM
OVCAR-8 ovarian
  TGI: > 10 µM
SK-OV-3 ovarian
  TGI: > 10 µM
RXF 393 renal
  TGI: > 10 µM
SF-295 CNS
  TGI: > 10 µM
OVCAR-5 ovarian
  TGI: > 10 µM
T-47D breast
  TGI: > 10 µM
MDA-MB-435
  TGI: > 10 µM
MCF7 breast
  TGI: > 10 µM
CCRF-CEM leukemia
  TGI: > 10 µM
COLO 205 colon
  TGI: > 10 µM
EKVX NSCLC
  TGI: > 10 µM
NCI-H23 lung
  TGI: > 10 µM
SF-539 CNS
  TGI: > 10 µM
786-0 renal
  TGI: > 10 µM
OVCAR-3 ovarian
  TGI: > 10 µM
SR leukemia
  TGI: > 10 µM
MDA-MB-231 breast
  TGI: > 10 µM
IGROV1 ovarian
  TGI: > 10 µM
NCI-H460 lung
  TGI: > 10 µM
MOLT-4 leukemia
  TGI: > 10 µM
HT29 colon
  TGI: > 10 µM
SN12C renal
  TGI: > 10 µM
M14 melanoma
  TGI: > 10 µM
SK-MEL-5 melanoma
  TGI: > 10 µM
SNB-19 CNS
  TGI: > 10 µM
SNB-75 CNS
  TGI: > 10 µM
NCI/ADR-RES ovarian
  TGI: > 10 µM

## CCN(CC)CCN(CC)CC.CCN(CC)CCN(CC)CC.[Cu+2].[Cu+2].[O-][Cl+3]([O-])([O-])[O-].[OH3+].[OH3+]
HL-60(TB) leukemia
  GI50: 30.8 µM
  TGI: > 100 µM
TK-10 renal
  GI50: 96.7 µM
  TGI: > 100 µM
UO-31 renal
  GI50: > 100 µM
  TGI: > 100 µM
OVCAR-4 ovarian
  GI50: 27.7 µM
  TGI: 51.2 µM
ACHN renal
  GI50: > 100 µM
  TGI: > 100 µM
A549 NSCLC
  GI50: 30.2 µM
  TGI: > 100 µM
SK-MEL-28 melanoma
  GI50: 22.1 µM
  TGI: 45.5 µM
KM12 colon
  GI50: 18.2 µM
  TGI: 34.2 µM
HCT-116 colon
  GI50: 40.2 µM
  TGI: > 100 µM
HOP-62 NSCLC
  GI50: 22.5 µM
  TGI: 40.3 µM
U251 CNS
  GI50: 17.2 µM
  TGI: 32.1 µM
SW-620 colon
  GI50: > 100 µM
  TGI: > 100 µM
DMS 114 small cell lung
  GI50: 16.6 µM
  TGI: 32.6 µM
CAKI-1 renal
  GI50: > 100 µM
  TGI: > 100 µM
KM20L2 colon
  GI50: 23.9 µM
  TGI: 61.4 µM
M19-MEL melanoma
  GI50: 24.2 µM
  TGI: 53.7 µM
K-562 leukemia
  GI50: 53.1 µM
  TGI: > 100 µM
NCI-H522 lung
  GI50: 25.6 µM
  TGI: 55.2 µM
RPMI-8226 leukemia
  GI50: 83.2 µM
  TGI: > 100 µM
HOP-92 NSCLC
  GI50: > 100 µM
  TGI: > 100 µM
SNB-78 CNS
  GI50: > 100 µM
  TGI: > 100 µM
UACC-62 melanoma
  GI50: 18.3 µM
  TGI: 36.4 µM
LXFL 529 NSCLC
  GI50: > 100 µM
  TGI: > 100 µM
A498 renal
  GI50: 22.4 µM
  TGI: 37.9 µM
UACC-257 melanoma
  GI50: > 100 µM
  TGI: > 100 µM
SF-268 CNS
  GI50: 23.9 µM
  TGI: 50.3 µM
LOX IMVI melanoma
  GI50: 14.4 µM
  TGI: 45.7 µM
MALME-3M melanoma
  GI50: > 100 µM
  TGI: > 100 µM
OVCAR-8 ovarian
  GI50: > 100 µM
  TGI: > 100 µM
SK-OV-3 ovarian
  GI50: 13.9 µM
  TGI: 27.3 µM
DLD-1 colon
  GI50: 51.9 µM
  TGI: > 100 µM
SF-295 CNS
  GI50: 34.4 µM
  TGI: 98.9 µM
CCRF-CEM leukemia
  GI50: 37.6 µM
  TGI: > 100 µM
COLO 205 colon
  GI50: > 100 µM
  TGI: > 100 µM
NCI-H23 lung
  GI50: 31.1 µM
  TGI: 77.8 µM
SF-539 CNS
  GI50: > 100 µM
  TGI: > 100 µM
786-0 renal
  GI50: 46 µM
  TGI: > 100 µM
OVCAR-3 ovarian
  GI50: 23.9 µM
  TGI: 55.8 µM
SR leukemia
  GI50: > 100 µM
  TGI: > 100 µM
IGROV1 ovarian
  GI50: 29.4 µM
  TGI: 87.9 µM
DMS 273 small cell lung
  GI50: 22 µM
  TGI: > 100 µM
NCI-H460 lung
  GI50: 15.5 µM
  TGI: 37.6 µM
MOLT-4 leukemia
  GI50: 91.4 µM
  TGI: > 100 µM
HT29 colon
  GI50: 25.6 µM
  TGI: 87.9 µM
SN12C renal
  GI50: 90.7 µM
  TGI: > 100 µM
M14 melanoma
  GI50: > 100 µM
  TGI: > 100 µM
SK-MEL-5 melanoma
  GI50: 15.6 µM
  TGI: 29.5 µM
SNB-19 CNS
  GI50: 22 µM
  TGI: 36.6 µM
SNB-75 CNS
  GI50: 23.6 µM
  TGI: 39.4 µM
HOP-18 NSCLC
  GI50: > 100 µM
  TGI: > 100 µM
